Experimental data: ChEMBL document CHEMBL1201862, “PubChem BioAssay data set” (2004)
Active and inactive are the calls of the source. Rule as the data show it, for most assays here: actives have a measured IC50 and inactives only a lower limit.

Assays:
[1] = Luminescence Cell-Based Dose Response HTS to Identify Activators of Luciferase Translation or Activity in H4 […] Cells. [Related pubchem assays: 1829 (Project Summary), 1814 (Primary HTS)]; type: functional
[2] = biological target: Alkaline phosphatase, placental type (Homo sapiens, UniProt P05187); test: human placental alkaline phosphatase inhibition – biochemical, luminescence, confirmation (AID 1512); type: functional
[3] = biological target: T1, Alkaline phosphatase, tissue-nonspecific isozyme (Homo sapiens, UniProt P05186); test: potency against alkaline phosphatase TNAP – biochemical, luminescent, dose response, SAR follow-up (AID 1056)
T1 sequence (P05186 whole entry): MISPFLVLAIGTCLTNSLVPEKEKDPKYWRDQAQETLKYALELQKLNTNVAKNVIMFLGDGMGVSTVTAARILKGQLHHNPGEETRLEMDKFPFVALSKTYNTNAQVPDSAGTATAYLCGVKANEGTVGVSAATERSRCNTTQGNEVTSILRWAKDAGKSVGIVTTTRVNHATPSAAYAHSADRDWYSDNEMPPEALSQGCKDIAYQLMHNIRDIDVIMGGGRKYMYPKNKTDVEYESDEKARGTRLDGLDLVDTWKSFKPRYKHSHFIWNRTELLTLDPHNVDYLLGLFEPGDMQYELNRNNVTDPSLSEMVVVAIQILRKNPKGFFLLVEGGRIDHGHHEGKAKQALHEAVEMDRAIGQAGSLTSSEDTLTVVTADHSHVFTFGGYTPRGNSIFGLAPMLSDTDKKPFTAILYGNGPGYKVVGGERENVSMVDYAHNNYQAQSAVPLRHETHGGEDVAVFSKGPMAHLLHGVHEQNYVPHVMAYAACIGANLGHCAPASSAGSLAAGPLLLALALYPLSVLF

[4] = biological target: T2, Rac GTPase-activating protein 1 (Homo sapiens, UniProt Q9H0H5); test: blockers of MgcRacGAP-driven Rac1 GTP hydrolysis – biochemical, ADP Hunter fluorescence, primary and confirmatory, confirmation (AID 624330); type: functional
T2 sequence (Q9H0H5 whole entry): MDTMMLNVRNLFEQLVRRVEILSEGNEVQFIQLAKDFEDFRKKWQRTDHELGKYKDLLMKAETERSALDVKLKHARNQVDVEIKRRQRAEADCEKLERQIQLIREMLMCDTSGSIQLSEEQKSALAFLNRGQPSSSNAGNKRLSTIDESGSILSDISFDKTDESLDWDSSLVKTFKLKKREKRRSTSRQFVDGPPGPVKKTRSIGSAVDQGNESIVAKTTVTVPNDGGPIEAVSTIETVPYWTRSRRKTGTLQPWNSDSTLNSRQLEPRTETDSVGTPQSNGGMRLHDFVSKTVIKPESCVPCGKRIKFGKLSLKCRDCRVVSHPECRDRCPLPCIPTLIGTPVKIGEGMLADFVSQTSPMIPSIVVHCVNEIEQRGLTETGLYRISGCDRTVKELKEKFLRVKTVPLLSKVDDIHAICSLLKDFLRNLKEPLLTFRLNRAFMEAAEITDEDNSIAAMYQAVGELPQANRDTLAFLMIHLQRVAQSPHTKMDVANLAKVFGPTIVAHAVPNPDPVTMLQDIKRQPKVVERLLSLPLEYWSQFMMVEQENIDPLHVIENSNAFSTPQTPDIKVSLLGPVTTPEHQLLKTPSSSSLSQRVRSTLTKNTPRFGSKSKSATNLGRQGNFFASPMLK

[5] = biological target: T3, Heat shock factor protein 1 (Mus musculus, UniProt P38532); test: decrease of HSF1-responsive luciferase luminescence – cell-based, NIH3T3, dose retest, confirmation (AID 2382); type: functional;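 also: NIH3T3 fibroblasts with HSF1-driven luciferase reporter stressed by proteasome inhibitor MG132; luminescence from HSF1-driven luciferase expression after 8 hours of MG132 stress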
T3 sequence (P38532 whole entry): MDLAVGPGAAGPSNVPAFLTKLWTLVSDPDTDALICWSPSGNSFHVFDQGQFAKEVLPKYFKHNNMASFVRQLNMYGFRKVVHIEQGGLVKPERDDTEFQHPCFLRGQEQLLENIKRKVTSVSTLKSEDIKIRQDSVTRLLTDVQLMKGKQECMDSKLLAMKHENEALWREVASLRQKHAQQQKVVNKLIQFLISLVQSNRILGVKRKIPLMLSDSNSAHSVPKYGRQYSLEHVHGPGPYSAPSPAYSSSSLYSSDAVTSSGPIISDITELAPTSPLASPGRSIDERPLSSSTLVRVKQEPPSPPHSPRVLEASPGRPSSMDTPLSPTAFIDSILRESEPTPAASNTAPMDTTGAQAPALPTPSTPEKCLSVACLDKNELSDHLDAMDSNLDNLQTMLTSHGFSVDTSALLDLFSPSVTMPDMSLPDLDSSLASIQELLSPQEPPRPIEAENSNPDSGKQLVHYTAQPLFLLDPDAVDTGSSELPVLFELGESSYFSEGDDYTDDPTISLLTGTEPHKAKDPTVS

[6] = biological target: T4, Microphthalmia-associated transcription factor (Homo sapiens, UniProt O75030); test: reducers of TRPM1 reporter luminescence, concentration series – cell-based, SK-MEL-5, cherry-picked, set 3, MITF inhibitor project, dose response (AID 493073); type: functional;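 also: SK-MEL-5 melanoma cells with luciferase driven by the MITF target TRPM1 promoter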
T4 sequence (O75030 whole entry): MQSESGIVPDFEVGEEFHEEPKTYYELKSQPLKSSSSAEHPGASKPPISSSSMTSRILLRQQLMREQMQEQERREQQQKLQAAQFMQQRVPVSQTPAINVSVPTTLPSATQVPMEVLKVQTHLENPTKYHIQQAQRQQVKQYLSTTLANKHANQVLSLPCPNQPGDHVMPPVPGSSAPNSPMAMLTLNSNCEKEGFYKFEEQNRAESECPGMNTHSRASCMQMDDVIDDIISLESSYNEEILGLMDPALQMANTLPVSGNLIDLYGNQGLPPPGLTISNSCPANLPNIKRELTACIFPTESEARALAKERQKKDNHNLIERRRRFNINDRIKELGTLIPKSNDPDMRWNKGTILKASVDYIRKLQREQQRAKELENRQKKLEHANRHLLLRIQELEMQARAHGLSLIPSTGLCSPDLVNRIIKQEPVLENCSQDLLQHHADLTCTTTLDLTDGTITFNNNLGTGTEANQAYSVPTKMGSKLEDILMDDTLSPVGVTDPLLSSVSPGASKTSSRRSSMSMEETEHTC

[7] = biological target: Dual specificity protein phosphatase 3 (Homo sapiens, UniProt P51452); test: SAR VHR1 Fluorescent Assay for In Vitro dose response studies Set 2. [Related pubchem assays (depositor defined):AID1654, AID1661, AID1878]; type: functional
[8] = biological target: T5, Tyrosine-protein phosphatase non-receptor type 7 (Homo sapiens, UniProt P35236); test: SAR analysis of chemical inhibitors of HePTP using a Fluorescent assay - Set 2. [Related pubchem assays (depositor defined):AID1059, AID1077, AID1661, AID2085, AID521]; type: functional
T5 sequence (P35236 whole entry): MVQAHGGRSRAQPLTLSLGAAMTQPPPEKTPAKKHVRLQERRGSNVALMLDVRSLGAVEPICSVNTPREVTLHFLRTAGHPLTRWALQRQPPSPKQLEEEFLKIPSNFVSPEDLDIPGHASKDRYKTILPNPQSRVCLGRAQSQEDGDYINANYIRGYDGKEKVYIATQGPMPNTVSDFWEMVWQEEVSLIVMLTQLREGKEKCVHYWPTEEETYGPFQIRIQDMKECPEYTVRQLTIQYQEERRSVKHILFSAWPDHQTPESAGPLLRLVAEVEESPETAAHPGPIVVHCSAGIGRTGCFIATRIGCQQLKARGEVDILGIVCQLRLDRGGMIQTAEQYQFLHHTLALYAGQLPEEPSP

[9] = biological target: T6, Ubiquitin-conjugating enzyme E2 N (Homo sapiens, UniProt P61088); type: functional
T6 sequence (P61088 whole entry): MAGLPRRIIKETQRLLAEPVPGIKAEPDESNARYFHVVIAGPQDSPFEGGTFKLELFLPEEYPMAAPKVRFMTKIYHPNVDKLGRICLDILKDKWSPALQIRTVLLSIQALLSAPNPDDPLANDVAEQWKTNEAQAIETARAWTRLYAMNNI

[10] = biological target: T6, Ubiquitin-conjugating enzyme E2 N; type: functional; remark: listed apart in the source
[11] = biological target: T7, Bcl-2-related protein A1 (Mus musculus, UniProt Q07440); type: functional;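 also: confirmatory dose–response counterscreen on Bfl-1, used to check hits from a UBC13 polyubiquitin inhibitor campaign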
T7 sequence (Q07440 whole entry): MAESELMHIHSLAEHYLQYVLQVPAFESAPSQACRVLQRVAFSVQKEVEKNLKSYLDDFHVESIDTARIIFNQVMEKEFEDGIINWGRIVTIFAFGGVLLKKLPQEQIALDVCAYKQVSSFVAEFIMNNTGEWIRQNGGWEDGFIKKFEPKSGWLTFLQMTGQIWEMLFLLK

Alkaline phosphatase, placental type, sequence (P05187 whole entry): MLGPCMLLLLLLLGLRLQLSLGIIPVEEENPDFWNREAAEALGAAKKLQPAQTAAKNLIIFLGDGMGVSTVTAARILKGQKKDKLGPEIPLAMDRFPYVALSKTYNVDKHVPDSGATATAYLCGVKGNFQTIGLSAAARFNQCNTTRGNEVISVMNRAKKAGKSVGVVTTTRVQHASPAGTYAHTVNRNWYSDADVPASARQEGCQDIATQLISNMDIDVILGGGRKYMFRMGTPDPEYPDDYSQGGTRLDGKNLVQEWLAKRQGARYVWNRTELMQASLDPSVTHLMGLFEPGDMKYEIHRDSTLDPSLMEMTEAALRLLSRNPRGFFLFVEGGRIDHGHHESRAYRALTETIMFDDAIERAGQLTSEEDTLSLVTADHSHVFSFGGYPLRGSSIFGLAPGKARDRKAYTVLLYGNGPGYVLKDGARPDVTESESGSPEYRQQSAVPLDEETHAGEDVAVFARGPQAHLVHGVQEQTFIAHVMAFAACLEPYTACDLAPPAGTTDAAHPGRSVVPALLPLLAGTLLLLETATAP
Dual specificity protein phosphatase 3, sequence (P51452 whole entry): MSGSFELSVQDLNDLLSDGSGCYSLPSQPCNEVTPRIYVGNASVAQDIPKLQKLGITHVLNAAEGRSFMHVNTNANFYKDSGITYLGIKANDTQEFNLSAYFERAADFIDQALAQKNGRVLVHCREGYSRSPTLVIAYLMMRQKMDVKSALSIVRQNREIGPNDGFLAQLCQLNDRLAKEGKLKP

Clc1ccccc1-c1n[nH]c(-c2ccccc2)n1
EC50 [1]: 0.348 µM (active) | IC50 [2]: > 100 µM (inactive) | IC50 [3]: 0.641 µM (active)

Nc1ccc2c(c1)OC1(CCCC1)O2
IC50 [2]: > 100 µM (inactive) | IC50 [4]: 31.5 µM (active) | IC50 [3]: > 100 µM (inactive) | EC50 [5]: 4.26 µM (active) | AC50 [6]: 11.2 µM (active)

CCCOc1ccc(C(=S)NCc2ccc(F)c(C(F)(F)F)c2)cc1
IC50 [7]: 71.7 µM (active) | IC50 [8]: 39.2 µM (active)

C#CCOCCOCCOCCNc1nc(N2CCN(C(=O)C([C@@H](C)O)n3cc([C@@H](N)CCCCN)nn3)CC2)nc(N2CCN(C(=O)[C@H](CO)n3cc([C@@H](N)C(C)C)nn3)CC2)n1 (stereo partly drawn)
IC50 [9]: 7.85 µM (active) | IC50 [10]: 8.01 µM (active) | IC50 [11]: > 20 µM (inactive)
